The nature of series [1]: Dynamic moisture sorption (DMS) assessment. The following applies: for deliquescence: exposed to atmospheric moisture / DMS. The class given is physicochemical. The method, then: Dynamic Moisture Sorption Assessment
A dynamic moisture sorption (DMS) assessment (also known as a moisture sorption-desorption profile) was performed for a hand ground sample of a crystalline 1,2-ethanedisulfonic acid salt of biphenyl-2-ylcarbamic acid 1-[2-(2-chloro-4-{[(R)-2-hydroxy-2-(8-hydroxy-2-oxo-1,2-dihydroquinolin-5-yl)ethylamino]methyl}-5-methoxyphenylcarbamoyl)ethyl]piperidin-4-yl ester of Preparation 18 using a VTI atmospheric microbalance, SGA-100 system (VTI Corp., Hialeah, Fla. 33016). A sample size of approximately 10 mg was used and the humidity was set at the ambient value at the start of the analysis. A typical DMS analysis consisted of three scans: ambient to 2% relative humidity (RH), 2% RH to 90% RH, 90% RH to 5% RH at a scan rate of 5% RH/step. The mass was measured every two minutes and the RH was changed to the next value (+/−5% RH) when the mass of the sample was stable to within 0.01% for 5 consecutive points.

Series [2] can be described thus: Thermal analysis (DSC and TGA). The series is classed as physicochemical. The following applies: DSC traces, samples of Example 6 and Example 2. On the procedure:
Differential scanning calorimetry (DSC) was performed using a TA Instruments Model Q-10 module with a Thermal Analyst controller. Data were collected and analyzed using TA Instruments Thermal Solutions software. A sample of about 1 mg was accurately weighed into an aluminum pan with lid. The sample was evaluated using a linear heating ramp of 5° C./min from ambient temperature to approximately 300° C. The DSC cell was purged with dry nitrogen during use. A representative DSC trace for a sample of a crystalline 1,2-ethanedisulfonic acid salt of biphenyl-2-ylcarbamic acid 1-[2-(2-chloro-4-{[(R)-2-hydroxy-2-(8-hydroxy-2-oxo-1,2-dihydroquinolin-5-yl)ethylamino]methyl}-5-methoxyphenylcarbamoyl)ethyl]piperidin-4-yl ester of Example 6 is shown in FIG. 1 and a representative DSC trace for a sample of Example 2 is shown in FIG. 2.
Thermogravimetric analysis (TGA) was performed using a TA Instruments Model Q-50 module equipped with high resolution capability. Data were collected and analyzed using TA Instruments Thermal Solutions software. A sample weighing about 10 mg was placed onto a platinum pan and scanned with a high resolution-heating rate from ambient temperature to 300° C. The balance and furnace chambers were purged with nitrogen flows during use. […]

Take “Biphenyl-2-ylcarbamic Acid 1-[2-(2-Chloro-4-{[(R)-2-hydroxy-2-(8-hydroxy-2-oxo-1,2-dihydroquinolin-5-yl)ethylamino]methyl}-5-methoxyphenylcarbamoyl)-ethyl]piperidin-4-yl Ester 1,2-Ethanedisulfonic Acid Salt”: in series [1] (DMS), the sorption/desorption profile entry is “reversible”. In series [1] (DMS trace, scans 2% RH to 90% RH, hand ground sample of Preparation 18), this substance displayed a hygroscopicity of less than 9%. For the same substance, the values for the deliquescence entry in series [1] and in series [1] (listed as crystalline 1,2-ethanedisulfonic acid salts of the compound of formula I) were “not deliquescent” and “not to be deliquescent”, respectively. Besides, the weight gain entry in series [1] (humidity range of 40% RH to 75% RH) is listed as “less than 2.5%”. In addition, in series [2], the “thermal stability: temperature below which no thermal decomposition” value is not below 200 °C.
